From patent US20220145264A1, “CULTURE MEDIUM FOR MAMMALIAN EXPANDED POTENTIAL STEM CELLS, COMPOSITION, AND METHODS THEREOF” (THE UNIVERSITY OF HONG KONG, priority 2019, published 2022)

Legend:
pEPSCs^Emb = assay: Requirement of individual culture components for pEPSCs (RT-qPCR, AP+ colony formation); type: cell-based, porcine
Experimental: (§1) Porcine and human EPSC cultures were routinely maintained on STO feeders. STO feeder plates were prepared 3-4 days before passaging by thawing and plating the mitomycin C inactivated STO cells on 0.1% gelatinised plates at the density of ˜1.1×10^4 cells/cm^2. Porcine/human EPSC cells were maintained on STO feeder layers and enzymatically passaged every 3-5 days by a brief PBS wash followed by treatment for 3-5 minutes with 0.25% trypsin/EDTA (Gibco, Cat. No. 25500-054). The cells were dissociated and centrifuged (300 g×5 minutes) in M10 medium. M10: knockout DMEM (Gibco, Cat. No. 10829-018), 10% FBS (Gibco, Cat. No. 10270), 1× Glutamine Penicillin-Streptomycin (Thermo Fisher Scientific, Cat. No. 11140050) and 1×NEAA (Thermo Fisher Scientific, Cat. No. 10378-016). After removing supernatant, the porcine/human EPSCs were re-suspended and seeded in pEPSCM/hEPSCM supplemented with 5 μM ROCK inhibitor Y-27632 (Tocris, Cat. No. 1254). 5% FBS (Gibco, Cat. No. 10270) and 10% KnockOut Serum Replacement (KSR) (Gibco, Cat. No. 10828028) were added in pEPSCM and hEPSCM respectively to improve cells survive. 12-24 hours later, medium was switched to pEPSCM/hEPSCM only. Both pEPSCM and hEPSCM are N2B27 based media. N2B27 basal media (500 ml) was prepared by inclusion of the following components: 482.5 ml DMEM/F-12 (Gibco, Cat. No. 21331-020), 2.5 ml N2 supplement (Thermo Fisher Scientific, Cat. No. 17502048), 5 ml B27 supplement (Thermo Fisher Scientific, Cat. No. 17504044), 5 ml 1× Glutamine Penicillin-Streptomycin (Thermo Fisher Scientific, Cat. No. 11140-050), and 5 ml 1×NEAA (Thermo Fisher Scientific, Cat. No. 10378-016), 0.1 mM 2-mercaptoethanol (Sigma, Cat. No. M6250). pEPSCM (500 ml) was generated by adding the following small molecules and cytokines into 500 ml N2B27 basal media: 0.2 μM CHIR99021(GSK3i, TOCRIS, Cat. No. 4423), 1 μM WH-4-023 (SRC inhibitor, TOCRIS, Cat. No. 5413), 2.5 μM XAV939 (Sigma, Cat. No. X3004) or 2.5 μM IWR-1 (TOCRIS, Cat. No. 3532), […] Vitamin C (Sigma, Cat. No. 49752-100G), 10 ng/ml LIF (Stem Cell Institute, University of Cambridge. SCI) and 20 ng/ml ACTIVIN (SCI). hEPSCM (500 ml) was generated by adding the following components into 500 ml N2B27 basal media: 1.0 μM CHIR99021(GSK3 inhibitor, TOCRIS, Cat. No. 4423), 0.5 μM A-419259 (SRC inhibitor, TOCRIS, Cat. No. 3914), 2.5 μM XAV939 (Sigma, Cat. No. X3004), […] Vitamin C (Sigma, Cat. No. 49752-100G), 10 ng/ml LIF (SCI). Although both targeting SRC family kinases (SFKs), WH-4-023 and A419259 were preferred for porcine and human EPSCs, respectively. […] The concentrations of CHIR99021 for porcine and human EPSC cultures are 0.2 μM and 1.0 μM, respectively. […] 0.25 μM SB 590885 (BRAF inhibitor, R&D, Cat. No. 2650) and 2.0 μM SP600125 ([…], TOCRIS, Cat. No. 1496) were included to improve porcine and human EPSC cultures, but they were not essential for the routine maintenance of porcine and human EPSCs. All cell cultures in this paper were performed under conditions of 37° C. and 5% CO2 unless stated otherwise.
(§2) Total RNA was isolated using an RNeasy Mini Kit (Qiagen, Cat. No. 74106) for cultured cells or RNeasy Micro Kit (Qiagen, Cat. No. 74034) for sorted NANOS3-mCherry^+ cells. RNA was subsequently quantified and treated with gDNA WipeOut to remove genomic DNA. Complementary DNA (cDNA) was prepared using a QuantiTect Reverse Transcription Kit (Qiagen, Cat. No. 205311). RT-qPCR primers or TaqMan Gene Expression Assays (Life Technologies) are listed in Supplementary Table 10 and 11. ABsolute Blue qPCR ROX Mix (ABgene, Cat. No. AB4138B) were used for probe based qPCR assays and SYBR Green ROX qPCR Mastermix (Qiagen, Cat. No. 330523) were used for primer based qPCR assays. All qPCR reactions were performed on ABI 7900 HT Sequence Detection System (Life Technologies). Information on all primers and probes used for qPCR analysis are provided in Supplementary Table 10 and 11. Gene expression was determined relative to GAPDH using the […]. […]

H1-EPSCs = assay: Requirement of individual culture components for hEPSCs (RT-qPCR, AP+ colony formation); type: cell-based, human; conditions: in the presence of 5.0 ng/ml
Experimental: as §1, §2

[1] = system: NANOS3-Tdtomato reporter EPSCs; assay: Differentiation to PGCLCs from NANOS3-Tdtomato reporter EPSCs (FACS); type: cell-based, human; conditions: 5.0 ng/ml supplemented in hEPSCM
Experimental: For human PGCLCs, the PGC differentiation potential of two hEPSC lines are tested with the sequential induction method. Human pre-mesoderm (pre-ME) was first induced in pre-ME media (Advanced RPMI 1640 Medium, 1% B27 supplement, 1×NEAA and 1× glutamine penicillin-streptomycin supplemented with 100 ng/ml Activin A (SCI), 3 μM CHIR99021 and 10 μM of ROCKi Y-27632) for 12 hours. Pre-ME were trypsinized into single cells and seeded into Corning Costar Ultra-Low attachment multi well 96-well plates (Corning, Cat. No. 7007) 4,000-5,000 cells per well in the […] PGCLC medium which was used for porcine PGCLC induction. To improve the cell aggregation, in all PGCLC induction experiments, 0.25% (v/v) poly-vinyl alcohol (Sigma, Cat. No. 341584) are added in the basal medium.

| Compound | pEPSC survival as measured by colony formation in serial passaging (pEPSCs^Emb; 0.1 μM added to pEPSCM) | cell survival and pluripotency factor expression (pEPSCs^Emb; removing ACTIVIN A from pEPSCM) | cell survival at passaging (H1-EPSCs) | NANOS3-tdTomato+ PGCLCs generated [1] |
| --- | --- | --- | --- | --- |
| O=C(NOC[C@H](O)CO)c1ccc(F)c(F)c1Nc1ccc(I)cc1F [PD0325901] | decreased pEPSC survival | – | – | – |
| ACTIVIN A: Human Recombinant ACTIVIN A cytokine | – | massive cell loss and down-regulation of pluripotency factors | substantially improved | more and substantially increased |
